Measurements published in patent US7994331B2, “Heterocycle-substituted benzimidazole derivative” (MSD K.K., priority 2005, dated 2011).

Target: T1, recombinant human liver GK (FLAG fusion protein) (Homo sapiens, UniProt P35557)
T1 construct: made in house; host or cells: E. coli
T1 sequence (P35557 1-466 isoform P35557-2): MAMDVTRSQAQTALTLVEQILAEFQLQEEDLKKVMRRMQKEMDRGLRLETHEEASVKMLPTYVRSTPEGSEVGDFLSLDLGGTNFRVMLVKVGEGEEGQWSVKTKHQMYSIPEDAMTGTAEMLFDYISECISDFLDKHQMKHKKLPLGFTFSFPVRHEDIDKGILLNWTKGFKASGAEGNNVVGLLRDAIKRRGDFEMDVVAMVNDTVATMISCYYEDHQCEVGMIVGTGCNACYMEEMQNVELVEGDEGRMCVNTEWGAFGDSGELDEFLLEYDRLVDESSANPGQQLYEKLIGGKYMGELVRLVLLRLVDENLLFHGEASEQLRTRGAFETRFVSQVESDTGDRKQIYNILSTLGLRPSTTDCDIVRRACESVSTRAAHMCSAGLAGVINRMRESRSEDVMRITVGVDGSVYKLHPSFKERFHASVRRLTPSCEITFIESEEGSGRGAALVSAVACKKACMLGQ
Test: Glucokinase (GK) activation assay, G6PDH-coupled Thio-NADH absorbance at 405 nm
Format: biochemical
Details: final glucose concentration 2.5 mM, 30° C.; for EC50: GK activation; for Emax: OD level of DMSO control set as 100%
Description: The excellent glucokinase-activating effect of the compounds of formula (I) may be determined by a method described in references (for example, Diabetes, Vol. 45, pp. 1671-1677, 1996), or in accordance with it.
The glucokinase activity may be determined not by directly measuring glucose-6-phosphate but by measuring the level of Thio-NADH, which is produced when a reporter enzyme, glucose-6-phosphate dehydrogenase produces phosphogluconolactone from glucose-6-phosphate, and based on the level, the level of glucokinase activation may be determined.
In this assay, used was a recombinant human liver GK, which was expressed by E. coli as a FLAG fusion protein therein and was purified by ANTIFLAG M2 AFFINITY GEL (Sigma).
Using a flat-bottomed 96-well plate, the assay was carried out at 30° C. 69 μl of an assay buffer (25 mM Hepes Buffer/pH=7.2, 2 mM MgCl2, 1 mM ATP, 0.5 mM TNAD, 1 mM dithiothreitol) was put into the plate, and 1 μl of a DMSO solution of the compound or DMSO alone as a control was added thereto. Next, 20 μl of an enzyme mixture (FLAG-GK, 20 U/ml G6PDH) cooled in ice was added to it, and 10 μl of a substrate, 25 mM glucose was added to it, and the reaction was initiated (final glucose concentration=2.5 mM).
After the start of the reaction, the increase in the absorbance at 405 nm was measured for 12 minutes at intervals of 30 seconds, and the increase for the first 5 minutes was used for evaluating the compound tested. FLAG-GK was added so that the absorbance increase after 5 minutes in the presence of 1% DMSO could be from 0.04 to 0.06.
The OD level of the DMSO control was set as 100%; and the OD level of the test compound at different concentrations was determined. From the OD level at each concentration, Emax (%) and EC50 (μM) were computed and used as the index of the GK-activating potency of the compound.

SMILES: CCS(=O)(=O)c1ccc(Oc2cc3[nH]c(-c4ccccn4)nc3cc2C2CCOC2=O)cc1 (centres unmarked) [Example 36, 3-(6-(4-(ethylsulfonyl)phenoxy)-2-pyridin-2-yl-1H-benzimidazol-5-yl)dihydrofuran-2(3H)-one]
- EC50: 880 nM
- Emax: 978%

SMILES: CCS(=O)(=O)c1ccc(Oc2cc3[nH]c(-c4ccccn4)nc3cc2C2OC(=O)N(C)C2=O)cc1 (centres unmarked) [Example 31, 5-(6-(4-(ethylsulfonyl)phenoxy)-2-pyridin-2-yl-1H-benzimidazol-5-yl)-3-methyl-1,3-oxazolidine-2,4-dione]
- EC50: 1580 nM

SMILES: CCS(=O)(=O)c1ccc(Oc2cc3[nH]c(-c4ccccn4)nc3cc2C2OCCO2)cc1 [Example 1, 5-(1,3-dioxolan-2-yl)-6-(4-(ethylsulfonyl)phenoxy)-2-pyridin-2-yl-1H-benzimidazole]
- EC50: 1180 nM
- Emax: 923%

SMILES: CCS(=O)(=O)c1ccc(Oc2cc3[nH]c(-c4cnccn4)nc3cc2C2CCC(=O)O2)cc1 (centres unmarked) [Example 23, 5-(6-(4-(ethylsulfonyl)phenoxy)-2-pyrazin-2-yl-1H-benzimidazol-5-yl)dihydrofuran-2(3H)-one]
- EC50: 1420 nM

SMILES: CCS(=O)(=O)c1ccc(Oc2cc3[nH]c(-c4ccccn4)nc3cc2C2CCCS2)cc1 (centres unmarked) [Example 29-1, 5-(tetrahydro-2-thienyl)-6-(4-(ethylsulfonyl)phenoxy)-2-pyridin-2-yl-1H-benzimidazole]
- EC50: 600 nM

SMILES: Cc1nc(-c2ccc(Oc3cc4[nH]c(-c5ccccn5)nc4cc3C3CCCO3)cn2)no1 (centres unmarked) [Example 17, 5-(tetrahydrofuran-2-yl)-6-(6-(5-methyl-(1,2,4)oxadiazol-3-yl)-pyridin-3-yloxy)-2-pyridin-2-yl-1H-benzimidazole]
- EC50: 1400 nM
